From US20260240863A1, “COMBINATION OF ROGINOLISIB AND HDAC INHIBITOR IN THE TREATMENT OF HAEMATOLOGICAL MALIGNANCY” (IONCTURA SA, priority 2023, published 2026)

Columns and labels:
[1] = tested on: Farage (DLBCL) cell line; assay: MTT antiproliferation combination assay, Chou-Talalay Combination Index, Farage; assay type: cell-based; settings: HDAC inhibitor in combination with Compound 1, 72 hours
Description: (§1) Cell lines from different haematological malignancies were exposed to increasing doses of Compound 1, to increasing doses of HDAC inhibitor, and to increasing doses of the combination of Compound 1 and HDAC inhibitor. Compound 1 and Vorinostat were used at a maximum concentration of 10 μM, following an eight fold dose response design based on 1:3 compound dilutions plus an untreated control. Belinostat was used at a maximum concentration of 10 μM, following an eight fold dose response design based on 1:4 compound dilutions plus an untreated control.
(§2) Cells were incubated for 72 hours at 37° C. and 5% CO2. The antiproliferative effect of single and combination treatments were determined by adding 20 μL MTT [3-(4,5-dimethylthiazolyl-2)-2,5-diphenyltetrazoliumbromide] reagent (Sigma Aldrich, Buchs, Switzerland) to each well and the plates were incubated at 37° C. for 4 hours, followed by adding 50 μL of sodium dodecyl sulfate (SDS) (250 µM SDS, 0.21% fuming HCl) lysis buffer. The lysed cells were kept overnight, and then the absorbance was read at 570 nm using the Cytation 3 instrument (BioTek, Winoosku, VT, USA). The effect of the combinations was determined according to the Chou-Talalay Combination Index (CI) (Chou 2008, Chou 2010) and calculated with the Synergy R package (Lee 2007). […]

[2] = tested on: A20 (murine B-cell lymphoma) cell line; assay: MTT antiproliferation combination assay, Chou-Talalay Combination Index, A20; assay type: cell-based; settings: HDAC inhibitor in combination with Compound 1, 72 hours
Description: as §1, §2

[3] = tested on: JVM2 (MCL) cell line; assay: MTT antiproliferation combination assay, Chou-Talalay Combination Index, JVM2; assay type: cell-based; settings: HDAC inhibitor in combination with Compound 1, 72 hours
Description: as §1, §2

[4] = tested on: TMD8 (DLBCL) cell line; assay: MTT antiproliferation combination assay, Chou-Talalay Combination Index, TMD8; assay type: cell-based; settings: HDAC inhibitor in combination with Compound 1, 72 hours
Description: as §1, §2

[5] = tested on: MEC1 (CLL) cell line; assay: MTT antiproliferation combination assay, Chou-Talalay Combination Index, MEC1; assay type: cell-based; settings: HDAC inhibitor in combination with Compound 1, 72 hours
Description: as §1, §2

[6] = tested on: DNMT; settings: more than that of azacytidine; cited from earlier work
[7] = clinical use of Vorinostat; cited from earlier work

| Structure (SMILES) | Cl value (median) [1] | Cl value (median) [2] | Cl value (median) [3] | Cl value (median) [4] | Cl value (median) [5] | inhibitory activity of DNMT relative to azacytidine [6] [times] | pulmonary embolism (thromboembolic, most common life-threatening event) [7] [%] |
| --- | --- | --- | --- | --- | --- | --- | --- |
| O=C(/C=C/c1cccc(S(=O)(=O)Nc2ccccc2)c1)NO [Belinostat, (2E)-N-Hydroxy-3-[3-(phenylsulfamoyl)phenyl]prop-2-enamide] | 0.51 | 0.87 | 0.62 | 0.87 | 0.45 | – | – |
| Nc1ncn([C@H]2C[C@H](O)[C@@H](CO)O2)c(=O)n1 [Decitabine, 5-aza-2′-deoxycytidine] | – | – | – | – | – | 30 | – |
| O=C(CCCCCCC(=O)Nc1ccccc1)NO [Vorinostat, N-Hydroxy-N′-phenyloctanediamide] | 0.69 | – | 0.71 | – | 0.83 | – | 4 |
